The text below walks through data of publication PMC8957573 (Journal of Natural Products, 2022).

Structures are written as SMILES.

The assay addresses T1, TAK1 (Homo sapiens, UniProt O43318).
T1 sequence (O43318 1-303 limits assumed): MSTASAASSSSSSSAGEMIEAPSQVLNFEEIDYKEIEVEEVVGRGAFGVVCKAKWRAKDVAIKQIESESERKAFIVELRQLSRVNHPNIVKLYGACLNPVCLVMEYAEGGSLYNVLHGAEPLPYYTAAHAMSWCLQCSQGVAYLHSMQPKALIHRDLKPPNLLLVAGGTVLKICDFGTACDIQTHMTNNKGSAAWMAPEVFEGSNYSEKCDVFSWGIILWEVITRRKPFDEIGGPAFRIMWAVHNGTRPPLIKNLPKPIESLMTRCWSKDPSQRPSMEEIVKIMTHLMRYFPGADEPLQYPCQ
In words: TAK1 inhibition assay. The settings on record: cis-enone RALs. It is filed as biochemical.

In the case of `COc1cc(O)c2c(c1)[C@H]1O[C@@H]1C[C@H](O)[C@H](O)C(=O)/C=C\C[C@H](C)OC2=O` [Hypothemycin (1), Hypothemycin], the “Inhibitory activity against TAK1 (in words)” value is on record as “inhibit TAK1”.
